Converted amounts (≈) assume the structure as drawn. The source made the active and inactive calls. The rule behind the calls is not given here.
Experiments:
Cryptococcus neoformans [1] = test: Antimicrobial activity against Cryptococcus neoformans USC1597 isolate after 72 hrs; assay type: functional
Cryptococcus neoformans [2] = test: Antimicrobial activity against 9 x 10^6 CFU Cryptococcus neoformans USC1597 isolate intracranially infected in Hartley guinea pig assessed as cerebrospinal fluid […] count per ml at 10 mg/kg, po BID administered 48 hrs postinfection for 13 days; assay type: functional
Cryptococcus neoformans [3] = test: Antimicrobial activity against 9 x 10^6 CFU Cryptococcus neoformans USC1597 isolate intracranially infected in Hartley guinea pig assessed as brain […] count per gram at 10 mg/kg, po BID administered 48 hrs postinfection for 13 days; assay type: functional
Cryptococcus neoformans [4] = test: Antimicrobial activity against 9 x 10^6 CFU Cryptococcus neoformans USC1597 isolate intracranially infected in Hartley guinea pig assessed as kidney […] count per gram at 10 mg/kg, po BID administered 48 hrs postinfection for 13 days; assay type: functional
Cryptococcus neoformans [5] = test: Antimicrobial activity against 10^7 CFU Cryptococcus neoformans USC1597 isolate intracranially infected in Hartley guinea pig assessed as decrease in cerebrospinal fluid […] count per ml at 10 mg/kg, po BID administered 48 hrs postinfection for 13 days; assay type: functional
Cryptococcus neoformans [6] = test: Antimicrobial activity against 10^7 CFU Cryptococcus neoformans USC1597 isolate intracranially infected in Hartley guinea pig assessed as decrease in brain […] count at 10 mg/kg, po BID administered 48 hrs postinfection for 13 days; assay type: functional
Cryptococcus neoformans [7] = test: Antimicrobial activity against 10^7 CFU Cryptococcus neoformans USC1597 isolate intracranially infected in Hartley guinea pig assessed as decrease in kidney […] count at 10 mg/kg, po BID administered 48 hrs postinfection for 13 days; assay type: functional, organism-based; set-up: dose 10 mg/kg; details: […]
Cryptococcus neoformans [8] = test: Antimicrobial activity against 9 x 10^6 CFU Cryptococcus neoformans USC1597 isolate intracranially infected in Hartley guinea pig assessed as cerebrospinal fluid […] count per ml at 5 mg/kg, po BID administered 48 hrs postinfection for 13 days; assay type: functional
Cryptococcus neoformans [9] = test: Antimicrobial activity against 9 x 10^6 CFU Cryptococcus neoformans USC1597 isolate intracranially infected in Hartley guinea pig assessed as brain […] count per gram at 5 mg/kg, po BID administered 48 hrs postinfection for 13 days; assay type: functional
Cryptococcus neoformans [10] = test: Antimicrobial activity against 9 x 10^6 CFU Cryptococcus neoformans USC1597 isolate intracranially infected in Hartley guinea pig assessed as kidney […] count per gram at 5 mg/kg, po BID administered 48 hrs postinfection for 13 days; assay type: functional
Cryptococcus neoformans [11] = test: Antimicrobial activity against 10^7 CFU Cryptococcus neoformans USC1597 isolate intracranially infected in Hartley guinea pig assessed as decrease in cerebrospinal fluid […] count at 5 mg/kg, po BID administered 48 hrs postinfection for 13 days; assay type: functional
Cryptococcus neoformans [12] = test: Antimicrobial activity against 10^7 CFU Cryptococcus neoformans USC1597 isolate intracranially infected in Hartley guinea pig assessed as decrease in cerebrospinal fluid […] count at 20 mg/kg, po BID administered 48 hrs postinfection for 13 days; assay type: functional
Cryptococcus neoformans [13] = test: Antimicrobial activity against 10^7 CFU Cryptococcus neoformans USC1597 isolate intracranially infected in Hartley guinea pig assessed as decrease in brain […] count at 5 mg/kg, po BID administered 48 hrs postinfection for 13 days; assay type: functional
Cryptococcus neoformans [14] = test: Antimicrobial activity against 10^7 CFU Cryptococcus neoformans USC1597 isolate intracranially infected in Hartley guinea pig assessed as decrease in brain […] count at 20 mg/kg, po BID administered 48 hrs postinfection for 13 days; assay type: functional

Compound `C[C@@H]1[C@H](O)[C@@H](C)/C=C/C=C/C=C/C=C/C=C/C=C/C=C/[C@H](O[C@@H]2O[C@H](C)[C@@H](O)[C@H](N)[C@@H]2O)C[C@@H]2O[C@](O)(C[C@@H](O)C[C@@H](O)[C@H](O)CC[C@@H](O)C[C@@H](O)CC(=O)O[C@H]1C)C[C@H](O)[C@H]2C(=O)O` [AMPHOTERICIN B] has an MIC (Cryptococcus neoformans [1]) of 0.25 mg/L (≈ 0.271 µM).

`OC(Cn1cncn1)(Cn1cncn1)c1ccc(F)cc1F` [FLUCONAZOLE] was tested, and the log10cfu (Cryptococcus neoformans [2]) was 3.18, the MIC (Cryptococcus neoformans [1]) was 1 mg/L (≈ 3.27 µM) and the log10cfu (Cryptococcus neoformans [3]) was 5.25. For the same compound, the log10cfu (Cryptococcus neoformans [4]) was 2.43, the log10cfu (Cryptococcus neoformans [5]) was 1 and the log10cfu (Cryptococcus neoformans [6]) was 2. The Activity (Cryptococcus neoformans [7]) was “Active”.

`C[C@@H](c1ncncc1F)[C@](O)(Cn1cncn1)c1ccc(F)cc1F` [VORICONAZOLE] showed a log10cfu (Cryptococcus neoformans [8]) of 4.11, an MIC (Cryptococcus neoformans [1]) of 0.006 mg/L (≈ 0.0172 µM) and a log10cfu (Cryptococcus neoformans [9]) of 5.99. It also gave a log10cfu (Cryptococcus neoformans [10]) of 3.01, a log10cfu (Cryptococcus neoformans [5]) of 1.6 and a log10cfu (Cryptococcus neoformans [11]) of 0.7. For the same compound, the log10cfu (Cryptococcus neoformans [12]) was 1, the log10cfu (Cryptococcus neoformans [6]) was 1.5 and the log10cfu (Cryptococcus neoformans [13]) was 1. The log10cfu (Cryptococcus neoformans [14]) was 1.5.
